Experimental data taken from US20080292584A1 (priority 2005, published 2008).
“And” between values parts separate entries of the source, which are not always exact repeats. Equal values may be shown once.

Columns and labels:
[1] = biological target: T1, CYP1A2 (Homo sapiens, UniProt P05177); assay: Inhibition of CYP1A2 activity in pooled human liver microsomes (phenacetin 50 μM to acetaminophen); type: in vitro ADME
T1 sequence (P05177 1-516): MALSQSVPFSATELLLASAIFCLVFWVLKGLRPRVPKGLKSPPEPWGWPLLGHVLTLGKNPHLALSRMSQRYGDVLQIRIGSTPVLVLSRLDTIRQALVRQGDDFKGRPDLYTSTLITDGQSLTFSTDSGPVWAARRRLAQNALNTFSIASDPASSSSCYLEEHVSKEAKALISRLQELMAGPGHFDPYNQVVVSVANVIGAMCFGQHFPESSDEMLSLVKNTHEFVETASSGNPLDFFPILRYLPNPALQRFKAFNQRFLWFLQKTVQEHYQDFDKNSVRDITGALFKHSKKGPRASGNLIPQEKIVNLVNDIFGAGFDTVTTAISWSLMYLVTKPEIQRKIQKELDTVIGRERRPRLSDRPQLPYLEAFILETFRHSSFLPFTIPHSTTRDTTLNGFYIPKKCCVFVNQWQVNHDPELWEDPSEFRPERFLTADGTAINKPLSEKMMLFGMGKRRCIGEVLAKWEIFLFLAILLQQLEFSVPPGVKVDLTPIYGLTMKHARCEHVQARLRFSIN
Protocol: Microsomes were prepared by differential centrifugation of liver homogenates pooled from at least ten human donors.
After a 5 minute preincubation, NADPH regenerating system (NRS) was added to initiate the reaction. CYP2A6 and CYP3A4 incubations were for 10 minutes. All other incubations were for 30 minutes.
Incubations for CYP2C8 were terminated by adding 1.0 mL of ACN, while all other incubations were terminated by adding 1.0 mL of methanol.
Vehicle control experiments were performed to establish a baseline value for enzyme activity. […] Four replicates were performed.
Two replicates were performed. […] No interference was detected in any of the metabolite assay methods used.

[2] = biological target: T2, CYP2C8 (Homo sapiens, UniProt P10632); assay: Inhibition of CYP2C8 activity in pooled human liver microsomes (paclitaxel 5 μM to 6-hydroxy paclitaxel); type: in vitro ADME
T2 sequence (P10632 1-490): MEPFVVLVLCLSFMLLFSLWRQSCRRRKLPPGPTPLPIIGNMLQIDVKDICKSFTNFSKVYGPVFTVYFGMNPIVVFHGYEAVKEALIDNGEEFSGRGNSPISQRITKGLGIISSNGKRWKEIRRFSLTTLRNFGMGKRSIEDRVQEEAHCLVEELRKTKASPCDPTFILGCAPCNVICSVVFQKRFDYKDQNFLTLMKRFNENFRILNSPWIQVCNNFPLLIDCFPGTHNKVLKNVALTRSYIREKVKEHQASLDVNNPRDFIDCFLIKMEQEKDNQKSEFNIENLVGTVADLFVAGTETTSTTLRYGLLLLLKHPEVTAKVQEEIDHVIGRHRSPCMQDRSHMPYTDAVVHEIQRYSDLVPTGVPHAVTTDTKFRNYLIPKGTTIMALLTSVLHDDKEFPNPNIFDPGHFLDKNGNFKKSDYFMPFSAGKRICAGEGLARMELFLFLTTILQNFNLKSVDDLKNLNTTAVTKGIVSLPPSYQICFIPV
Protocol: All other incubations were for 30 minutes.
Four replicates were performed.
Two replicates were performed.

[3] = biological target: T3, CYP2C9 (Homo sapiens, UniProt P11712); assay: Metabolism of metaxalone by expressed recombinant human CYP2C9 at 5 or 20 pmol (Example 4); conditions: for % Turnover Mean / [metaxalone] Mean / % Turnover % / [metaxalone]: 60 min; for % Turnover % / [metaxalone]: single replicates, listed as Metaxalone
Protocol: For CYP2C9 and CYP2D6, SUPERSOMES singly-expressing different allelic variants of the cytochrome p450 isozyme were commercially available. For each of CYP2C9 and CYP2D6, only the *1 allele was tested in these experiments. […]

[4] = biological target: T3, CYP2C9; assay: Metabolism of metaxalone by expressed recombinant human CYP2C9 (Example 1); conditions: 30 min
Protocol: (§1) Commercially available microsomes from baculovirus-infected insect cells containing singly-expressed recombinant wild-type (*1 allele) human CYP enzymes and cDNA-expressed human cytochrome p450 oxidoreductase [BD SUPERSOMES Enzymes; BD Biosciences Discovery Labware (Woburn, Mass.)] were used.
(§2) After a 5-minute pre-incubation, an NADPH regenerating system (NRS) was added to the incubation mixtures to initiate reactions, with a final incubation volume of 0.5 mL. Incubations were continued for 30 minutes, and then terminated, except for those for CYP2C19, which were incubated for 36 minutes prior to termination.
(§3) Matrix controls were performed to determine the background signal from the matrix components (microsomes (10 pmol p450), 01N Tris buffer, NRS, and 1% methanol). […] After a 5-minute pre-incubation, 2% sodium bicarbonate solution was added to the incubation mixtures. Incubation was for 30 minutes at a final volume of 0.5 mL. Matrix and metabolic negative controls were terminated by adding an equal volume of methanol. […] Analysis of samples was subsequent to storage at −70° C.

[5] = biological target: CYP3A4 (Homo sapiens, UniProt P08684); assay: Metabolism of metaxalone by expressed recombinant human CYP3A4 (Example 1); conditions: 30 min;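 also: microsomes holding 10 pmol P450, reactions started by an NADPH regenerating system after 5 min preincubation, 0.5 mL final volume, background signal taken from matrix controls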
Protocol: as §1, §2, §3

[6] = biological target: CYP2D6 (Homo sapiens, UniProt P10635); assay: Chemical inhibition of metaxalone turnover in human liver microsomes, CYP2D6 inhibitor quinidine; conditions: 7.5 μM metaxalone; 1 mg/mL HLM; 60 min; with quinidine; single replicates
Protocol: Human liver microsomes pooled from 15 individuals (male and female) (Pool HMMC-PL020; CellzDirect, Inc., In Vitro Products and Services Division) were used in some experiments of this study.
% Turnover=100−{[TA(final)]/[mean of TA(0 min)]}×100,
% Inhibition of Turnover=100{1−([TA(0 min)]−[TA(final-inhibitor)])/([TA(0 min)]−[TA(final-no inhibitor)])}.
The inhibitors or vehicle control were incubated with the pooled human liver microsomes (1 mg/mL) and NADPH (1 mM) in 0.1 M phosphate buffer, pH 7.4. […] Incubations were conducted in triplicate and terminated by addition of organic solvent. Samples were extracted and analyzed by LC-MS/MS as described above.

[7] = 0.75 μM metaxalone, 20 pmol cyp

Chain of CYP3A4 (P08684 2-503 limits assumed): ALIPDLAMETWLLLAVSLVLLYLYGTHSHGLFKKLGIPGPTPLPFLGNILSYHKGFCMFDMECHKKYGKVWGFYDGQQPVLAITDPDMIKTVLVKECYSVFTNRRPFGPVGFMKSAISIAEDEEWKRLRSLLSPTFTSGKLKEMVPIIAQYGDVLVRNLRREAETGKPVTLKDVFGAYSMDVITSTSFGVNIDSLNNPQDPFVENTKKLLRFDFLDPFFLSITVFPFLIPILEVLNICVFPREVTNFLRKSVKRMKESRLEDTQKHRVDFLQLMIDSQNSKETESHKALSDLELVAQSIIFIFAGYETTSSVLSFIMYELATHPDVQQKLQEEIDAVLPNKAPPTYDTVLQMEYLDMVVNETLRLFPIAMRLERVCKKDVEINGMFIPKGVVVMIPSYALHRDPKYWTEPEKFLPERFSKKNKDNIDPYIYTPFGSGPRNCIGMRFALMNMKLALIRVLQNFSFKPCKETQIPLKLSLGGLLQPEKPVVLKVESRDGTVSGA
T3 sequence (P11712 whole entry): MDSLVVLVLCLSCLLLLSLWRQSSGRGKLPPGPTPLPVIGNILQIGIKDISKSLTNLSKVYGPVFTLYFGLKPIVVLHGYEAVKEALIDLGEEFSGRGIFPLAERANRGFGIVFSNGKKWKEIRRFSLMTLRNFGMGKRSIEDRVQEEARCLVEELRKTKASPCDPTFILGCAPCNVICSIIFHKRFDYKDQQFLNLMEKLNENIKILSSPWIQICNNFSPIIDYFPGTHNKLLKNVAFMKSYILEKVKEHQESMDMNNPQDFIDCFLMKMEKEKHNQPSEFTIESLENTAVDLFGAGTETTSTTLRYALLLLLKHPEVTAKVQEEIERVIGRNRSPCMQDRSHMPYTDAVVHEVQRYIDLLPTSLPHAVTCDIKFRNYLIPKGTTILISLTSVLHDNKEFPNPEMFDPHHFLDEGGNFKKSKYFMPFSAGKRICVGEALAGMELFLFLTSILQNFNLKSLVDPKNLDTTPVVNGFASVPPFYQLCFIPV
Chain of CYP2D6 (P10635 whole entry): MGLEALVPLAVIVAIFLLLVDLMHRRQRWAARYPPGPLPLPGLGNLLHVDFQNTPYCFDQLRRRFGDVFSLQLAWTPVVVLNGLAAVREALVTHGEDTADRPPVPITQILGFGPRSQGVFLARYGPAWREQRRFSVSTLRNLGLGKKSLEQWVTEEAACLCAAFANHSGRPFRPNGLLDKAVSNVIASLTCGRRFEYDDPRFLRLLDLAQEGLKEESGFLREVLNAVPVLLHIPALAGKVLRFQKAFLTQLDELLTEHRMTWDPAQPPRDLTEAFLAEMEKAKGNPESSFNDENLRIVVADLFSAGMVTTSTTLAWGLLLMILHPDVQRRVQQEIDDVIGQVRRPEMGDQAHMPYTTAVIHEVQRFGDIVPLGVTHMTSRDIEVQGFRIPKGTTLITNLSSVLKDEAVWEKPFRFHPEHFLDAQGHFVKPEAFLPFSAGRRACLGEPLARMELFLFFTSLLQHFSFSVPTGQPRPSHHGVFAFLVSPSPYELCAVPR

Cc1cc(C)cc(OCC2CNC(=O)O2)c1 (stereo not shown) [metaxalone, 5-[(3,5-dimethylphenoxy)methyl]-2-oxazolidinone]
inhibition of CYP activity at a statistically significant level ([1]; 0.3-100 μM metaxalone, p≦0.05): inhibited
Inhibitor ([1]; CYP isozyme 1A2, summary of studies): +
Percent of VC ([1]; metaxalone 0.3 μM): 97.2%
Specific Activity Individual ([1]; metaxalone 0.3 μM): 28.6 pmol/min/mg protein and 27.2 pmol/min/mg protein
Specific Activity Mean ± SD ([1]; metaxalone 0.3 μM): 28.0 ± 0.715 pmol/min/mg protein
Percent of VC ([1]; metaxalone 1 μM): 92.3%
Specific Activity Individual ([1]; metaxalone 1 μM): 26.6 pmol/min/mg protein
Specific Activity Mean ± SD ([1]; metaxalone 1 μM): 26.6 ± 0.327 pmol/min/mg protein
Percent of VC ([1]; metaxalone 3 μM): 90.3%
Specific Activity Individual ([1]; metaxalone 3 μM): 26.5 pmol/min/mg protein and 25.1 pmol/min/mg protein and 26.4 pmol/min/mg protein
Specific Activity Mean ± SD ([1]; metaxalone 3 μM): 26.0 ± 0.785 pmol/min/mg protein
Percent of VC ([1]; metaxalone 30 μM): 89.8%
Specific Activity Individual ([1]; metaxalone 30 μM): 25.2 pmol/min/mg protein and 25.8 pmol/min/mg protein and 26.7 pmol/min/mg protein
Specific Activity Mean ± SD ([1]; metaxalone 30 μM): 25.9 ± 0.725 pmol/min/mg protein
Percent of VC ([1]; metaxalone 100 μM): 82.0%
Specific Activity Individual ([1]; metaxalone 100 μM): 23.7 pmol/min/mg protein and 23.6 pmol/min/mg protein (2×)
Specific Activity Mean ± SD ([1]; metaxalone 100 μM): 23.6 ± 0.0275 pmol/min/mg protein
inhibition of CYP activity at a statistically significant level ([2]; 0.3-100 μM metaxalone): no tested concentration of metaxalone inhibited activity
Inhibitor ([2]; CYP isozyme 2C8, summary of studies): 0
Percent of VC ([2]; metaxalone 0.3 μM): 92.7%
Specific Activity Individual ([2]; metaxalone 0.3 μM): 19.3 pmol/min/mg protein and 15.2 pmol/min/mg protein and 16.1 pmol/min/mg protein
Specific Activity Mean ± SD ([2]; metaxalone 0.3 μM): 16.8 ± 2.18 pmol/min/mg protein
Percent of VC ([2]; metaxalone 1 μM): 103%
Specific Activity Individual ([2]; metaxalone 1 μM): 18.6 pmol/min/mg protein and 18.3 pmol/min/mg protein and 19.1 pmol/min/mg protein
Specific Activity Mean ± SD ([2]; metaxalone 1 μM): 18.7 ± 0.406 pmol/min/mg protein
Percent of VC ([2]; metaxalone 3 μM): 109%
Specific Activity Individual ([2]; metaxalone 3 μM): 20.0 pmol/min/mg protein and 19.9 pmol/min/mg protein and 19.6 pmol/min/mg protein
Specific Activity Mean ± SD ([2]; metaxalone 3 μM): 19.9 ± 0.232 pmol/min/mg protein
Percent of VC ([2]; metaxalone 30 μM): 101%
Specific Activity Individual ([2]; metaxalone 30 μM): 19.9 pmol/min/mg protein and 18.3 pmol/min/mg protein and 16.9 pmol/min/mg protein
Specific Activity Mean ± SD ([2]; metaxalone 30 μM): 18.4 ± 1.52 pmol/min/mg protein
Percent of VC ([2]; metaxalone 100 μM): 97.8%
Specific Activity Individual ([2]; metaxalone 100 μM): 17.6 pmol/min/mg protein and 20.6 pmol/min/mg protein and 15.1 pmol/min/mg protein
Specific Activity Mean ± SD ([2]; metaxalone 100 μM): 17.8 ± 2.76 pmol/min/mg protein
% Turnover Mean ([3]; 0.75 μM metaxalone, 5 pmol cyp): 1.6%
[metaxalone] Mean ([3]; 0.75 μM metaxalone, 5 pmol cyp): 0.779 µM
% Turnover % ([3]; 0.75 μM metaxalone, 5 pmol cyp): 6.1% and 5.4% and −6.8%
[metaxalone] ([3]; 0.75 μM metaxalone, 5 pmol cyp): 0.743 µM and 0.749 µM and 0.845 µM
% Turnover Mean [3, 7]: 2.4%
[metaxalone] Mean [3, 7]: 0.772 µM
% Turnover % [3, 7]: 8.7% and 4.0% and −5.4%
[metaxalone] [3, 7]: 0.722 µM and 0.760 µM and 0.834 µM
% Turnover Mean ([3]; 7.5 μM metaxalone, 5 pmol cyp): 7.9%
[metaxalone] Mean ([3]; 7.5 μM metaxalone, 5 pmol cyp): 7.78 µM
% Turnover % ([3]; 7.5 μM metaxalone, 5 pmol cyp): 14.3% and 2.9% and 6.4%
[metaxalone] ([3]; 7.5 μM metaxalone, 5 pmol cyp): 7.24 µM and 8.20 µM and 7.90 µM
% Turnover Mean ([3]; 7.5 μM metaxalone, 20 pmol cyp): 3.7%
[metaxalone] Mean ([3]; 7.5 μM metaxalone, 20 pmol cyp): 8.13 µM
% Turnover % ([3]; 7.5 μM metaxalone, 20 pmol cyp): −1.1% and 1.6% and 10.7%
[metaxalone] ([3]; 7.5 μM metaxalone, 20 pmol cyp): 8.54 µM and 8.31 µM and 7.54 µM
Substrate ([3]; CYP isozyme 2C9, summary of studies): +
Metaxalone Present Adjusted Individual ([4]; metaxalone 0.5 μM): 0.360 µM and 0.348 µM
Metaxalone Present Adjusted Mean ± SD ([4]; metaxalone 0.5 μM): 0.355 ± 0.00608 µM
Metaxalone Present Raw ([4]; metaxalone 0.5 μM): 0.18 µM and 0.1778 µM and 0.174 µM
Percent of Metabolic Negative Control Individual ([4]; metaxalone 0.5 μM): 103% and 102%
Percent of Metabolic Negative Control Mean ± SD ([4]; metaxalone 0.5 μM): 102 ± 1.75%
Metaxalone Present Adjusted Individual ([4]; metaxalone 2.5 μM): 1.94 µM and 1.93 µM and 1.89 µM
Metaxalone Present Adjusted Mean ± SD ([4]; metaxalone 2.5 μM): 1.92 ± 0.0246 µM
Metaxalone Present Raw ([4]; metaxalone 2.5 μM): 0.9684 µM and 0.9659 µM and 0.946 µM
Percent of Metabolic Negative Control Individual ([4]; metaxalone 2.5 μM): 101% and 100%
Percent of Metabolic Negative Control Mean ± SD ([4]; metaxalone 2.5 μM): 99.7 ± 1.28%
Metaxalone Present Adjusted Individual ([4]; metaxalone 25 μM): 21.3 µM and 21.6 µM and 21.5 µM
Metaxalone Present Adjusted Mean ± SD ([4]; metaxalone 25 μM): 21.5 ± 0.144 µM
Metaxalone Present Raw ([4]; metaxalone 25 μM): 10.66 µM and 10.8 µM and 10.73 µM
Percent of Metabolic Negative Control Individual ([4]; metaxalone 25 μM): 100% and 102% and 101%
Percent of Metabolic Negative Control Mean ± SD ([4]; metaxalone 25 μM): 101 ± 0.675%
Metaxalone Present Adjusted Individual ([5]; metaxalone 0.5 μM): 0.320 µM and 0.323 µM and 0.317 µM
Metaxalone Present Adjusted Mean ± SD ([5]; metaxalone 0.5 μM): 0.320 ± 0.00333 µM
Metaxalone Present Raw ([5]; metaxalone 0.5 μM): 0.1598 µM and 0.1616 µM and 0.1583 µM
Percent of Metabolic Negative Control Individual ([5]; metaxalone 0.5 μM): 101% and 102% and 99.6%
Percent of Metabolic Negative Control Mean ± SD ([5]; metaxalone 0.5 μM): 101 ± 1.05%
Metaxalone Present Adjusted Individual ([5]; metaxalone 2.5 μM): 1.71 µM and 1.66 µM and 1.67 µM
Metaxalone Present Adjusted Mean ± SD ([5]; metaxalone 2.5 μM): 1.68 ± 0.0289 µM
Metaxalone Present Raw ([5]; metaxalone 2.5 μM): 0.8573 µM and 0.8292 µM and 0.8374 µM
Percent of Metabolic Negative Control Individual ([5]; metaxalone 2.5 μM): 99.8% and 96.5% and 97.5%
Percent of Metabolic Negative Control Mean ± SD ([5]; metaxalone 2.5 μM): 98.0 ± 1.68%
Percent of Metabolic Negative Control Individual ([5]; metaxalone 25 μM): 98.1% and 97.1% and 99.3%
Percent of Metabolic Negative Control Mean ± SD ([5]; metaxalone 25 μM): 98.1 ± 1.10%
% Turnover [6]: 11.1%
